Data reported in ChEMBL document CHEMBL4196124, “Reverse Hydroxamate Inhibitors of Bone Morphogenetic Protein 1” (ACS Med Chem Lett, 2018).

Columns and labels:
[1] = organism: Homo sapiens; assay: Selectivity ratio of IC50 for recombinant human C-terminal MMP2 (81 to 423 residues) catalytic domain expressed in Escherichia coli to IC50 for recombinant human N-terminal 6His/flag-tagged BMP1 (121 to 721 residues) expressed in CHO cells
[2] = organism: Homo sapiens; assay: Selectivity ratio of IC50 for ADAM9 (unknown origin) to IC50 for recombinant human N-terminal 6His/flag-tagged BMP1 (121 to 721 residues) expressed in CHO cells; format: cell-based
[3] = organism: Homo sapiens; assay: Selectivity ratio of IC50 for recombinant human C-terminal MMP14 (Tyr92 to Arg278 residues) catalytic domain expressed in Escherichia coli to IC50 for recombinant human N-terminal 6His/flag-tagged BMP1 (121 to 721 residues) expressed in CHO cells
[4] = organism: Homo sapiens; assay: Selectivity ratio of IC50 for MMP10 (unknown origin) to IC50 for recombinant human N-terminal 6His/flag-tagged BMP1 (121 to 721 residues) expressed in CHO cells; format: cell-based
[5] = organism: Homo sapiens; assay: Selectivity ratio of IC50 for recombinant human C-terminal MMP3 (83 to 255 residues) catalytic domain expressed in Escherichia coli to IC50 for recombinant human N-terminal 6His/flag-tagged BMP1 (121 to 721 residues) expressed in CHO cells
[6] = organism: Homo sapiens; assay: Selectivity ratio of IC50 for recombinant human His-tagged TACE (1 to 671 residues) expressed in insect cells to IC50 for recombinant human N-terminal 6His/flag-tagged BMP1 (121 to 721 residues) expressed in CHO cells
[7] = organism: Homo sapiens; assay: Selectivity ratio of IC50 for ADAM10 (unknown origin) to IC50 for recombinant human N-terminal 6His/flag-tagged BMP1 (121 to 721 residues) expressed in CHO cells; format: cell-based
[8] = organism: Homo sapiens; assay: Selectivity ratio of IC50 for recombinant human C-terminal MMP7 (78 to 250 residues) catalytic domain expressed in Escherichia coli to IC50 for recombinant human N-terminal 6His/flag-tagged BMP1 (121 to 721 residues) expressed in CHO cells
[9] = organism: Homo sapiens; assay: Selectivity ratio of IC50 for human ACE1 to IC50 for recombinant human N-terminal 6His/flag-tagged BMP1 (121 to 721 residues) expressed in CHO cells; format: cell-based
[10] = organism: Homo sapiens; assay: Selectivity ratio of IC50 for recombinant human C-terminal MMP9 (88 to 438 residues) catalytic domain expressed in Escherichia coli to IC50 for recombinant human N-terminal 6His/flag-tagged BMP1 (121 to 721 residues) expressed in CHO cells
[11] = biological target: T1, Tolloid-like protein 2 (Homo sapiens, UniProt Q9Y6L7); assay: Inhibition of recombinant human N-terminal 6His-tagged TLL2 (26 to 1015 residues) expressed in CHO cells using ((5-FAM)-ELIDQYDVQRDDSSDGSLED-K(5,6 TAMRA)-CONH2) as substrate preincubated for 10 mins followed by substrate addition measured after 60 mins
T1 sequence (Q9Y6L7 whole entry): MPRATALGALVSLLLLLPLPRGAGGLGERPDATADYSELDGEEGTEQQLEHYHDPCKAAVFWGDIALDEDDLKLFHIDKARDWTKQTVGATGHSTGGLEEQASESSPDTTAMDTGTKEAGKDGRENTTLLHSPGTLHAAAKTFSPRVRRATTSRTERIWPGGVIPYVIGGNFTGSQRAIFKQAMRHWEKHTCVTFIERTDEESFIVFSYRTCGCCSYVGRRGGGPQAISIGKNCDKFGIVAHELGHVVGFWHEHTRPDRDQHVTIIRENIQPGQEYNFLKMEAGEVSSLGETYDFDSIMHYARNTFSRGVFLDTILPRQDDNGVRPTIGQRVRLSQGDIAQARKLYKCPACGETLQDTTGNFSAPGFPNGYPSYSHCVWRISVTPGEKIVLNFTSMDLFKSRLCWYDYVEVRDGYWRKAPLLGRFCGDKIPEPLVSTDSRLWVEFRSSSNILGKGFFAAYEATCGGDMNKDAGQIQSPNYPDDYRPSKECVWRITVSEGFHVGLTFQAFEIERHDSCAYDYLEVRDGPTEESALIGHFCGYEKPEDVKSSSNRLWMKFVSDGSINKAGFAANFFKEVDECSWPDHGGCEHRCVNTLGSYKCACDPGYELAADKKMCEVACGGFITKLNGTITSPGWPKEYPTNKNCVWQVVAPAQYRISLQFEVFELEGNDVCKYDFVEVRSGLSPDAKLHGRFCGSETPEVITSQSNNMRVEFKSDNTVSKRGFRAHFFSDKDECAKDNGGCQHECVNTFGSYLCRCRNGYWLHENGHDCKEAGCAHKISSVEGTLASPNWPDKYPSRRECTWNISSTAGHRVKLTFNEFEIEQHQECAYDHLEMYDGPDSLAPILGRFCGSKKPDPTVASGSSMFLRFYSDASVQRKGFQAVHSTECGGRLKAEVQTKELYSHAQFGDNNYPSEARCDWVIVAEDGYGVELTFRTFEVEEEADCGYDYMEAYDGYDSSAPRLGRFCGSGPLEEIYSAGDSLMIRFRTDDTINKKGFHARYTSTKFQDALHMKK

[12] = tested on: Rattus norvegicus; assay: Dose normalized AUC in po dosed rat; format: ADME, organism-based; details: in vivo
[13] = organism: Homo sapiens; assay: Selectivity ratio of IC50 for recombinant human C-terminal MMP13 (85 to 255 residues) catalytic domain expressed in Escherichia coli to IC50 for recombinant human N-terminal 6His/flag-tagged BMP1 (121 to 721 residues) expressed in CHO cells
[14] = biological target: Cytochrome P450 3A4 (Homo sapiens, UniProt P08684); assay: Time dependent inhibition of CYP3A4 (unknown origin) at 33 uM measured over 15 mins relative to control; format: ADME; details: 0.25 h
Chain of Cytochrome P450 3A4 (P08684 whole entry): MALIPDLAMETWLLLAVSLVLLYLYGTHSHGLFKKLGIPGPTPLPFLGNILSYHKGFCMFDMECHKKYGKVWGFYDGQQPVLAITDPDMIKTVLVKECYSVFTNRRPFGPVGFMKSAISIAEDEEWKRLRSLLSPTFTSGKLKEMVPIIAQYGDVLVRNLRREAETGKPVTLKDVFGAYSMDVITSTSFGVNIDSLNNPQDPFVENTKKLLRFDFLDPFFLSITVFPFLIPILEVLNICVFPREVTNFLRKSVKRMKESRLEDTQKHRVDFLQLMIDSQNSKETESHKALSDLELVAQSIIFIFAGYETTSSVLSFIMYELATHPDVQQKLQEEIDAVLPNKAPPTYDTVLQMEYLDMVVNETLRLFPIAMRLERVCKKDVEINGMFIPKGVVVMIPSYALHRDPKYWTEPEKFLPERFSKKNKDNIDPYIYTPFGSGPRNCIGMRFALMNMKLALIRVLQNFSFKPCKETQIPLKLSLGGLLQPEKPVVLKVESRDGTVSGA

IC50 [11]: 160 nM
AUC/dose [12]: 1.6 kg·h/L
fold change (FC) [14]: 4.3
Compound: CCCCC[C@@H](C(=O)NCNC(=O)c1ccc(-c2ccccc2)o1)[C@@H](CC)N(O)C=O
Ratio IC50 [1]: > 30
Ratio IC50 [2]: > 30
Ratio IC50 [3]: > 30
Ratio IC50 [4]: > 30
Ratio IC50 [5]: > 30
Ratio IC50 [6]: > 30
Ratio IC50 [7]: > 30
Ratio IC50 [8]: > 30
Ratio IC50 [9]: > 30
Ratio IC50 [10]: > 30
Ratio IC50 [13]: > 30
